For 24 compounds, EC50 results are on record in patent US8034822B2, “Glucokinase activators” (Takeda San Diego, Inc., priority 2006, dated 2011).

Each structure is given as a SMILES string.

This assay has as its target T1, glucokinase (GK) (Homo sapiens, UniProt P35557).
T1 construct: I.D. No. 1 corresponds to residues 12-465 of glucokinase; made in house; host or cells: E. coli DH10b-T1r, pFLAG-CTC plasmid
T1 sequence (P35557 with tags, fused parts or gaps isoform P35557-2): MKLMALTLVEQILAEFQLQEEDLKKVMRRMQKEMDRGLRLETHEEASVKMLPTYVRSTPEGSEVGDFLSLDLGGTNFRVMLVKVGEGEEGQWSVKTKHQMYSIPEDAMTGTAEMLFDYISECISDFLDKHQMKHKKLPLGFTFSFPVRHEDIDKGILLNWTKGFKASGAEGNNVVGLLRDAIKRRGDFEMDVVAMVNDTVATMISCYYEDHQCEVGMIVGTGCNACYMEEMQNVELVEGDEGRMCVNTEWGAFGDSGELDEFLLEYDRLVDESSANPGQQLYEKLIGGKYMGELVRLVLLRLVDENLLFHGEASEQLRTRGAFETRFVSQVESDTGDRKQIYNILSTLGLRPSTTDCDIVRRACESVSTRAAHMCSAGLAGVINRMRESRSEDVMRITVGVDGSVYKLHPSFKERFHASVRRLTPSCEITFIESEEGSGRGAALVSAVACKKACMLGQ
As to the kind of experiment: enzymatic glucokinase activity assay (ATP consumption, KinaseGlo luminescence). It counts as biochemical. Particulars: Against GK; Kact = concentration giving 50% of maximal increase in GK activity; 5 μM ATP, 5 mM Glucose, 60 min room temperature; values given as bins; read-out: pKact. The source says: The activity of compounds as glucokinase activators may be assayed in vitro, in vivo or in a cell line. Provided below is an enzymatic glucokinase activity assay.
Purified glucokinase may be obtained as follows. DNA encoding residues 12-465 of the full-length sequence of the human enzyme may be amplified by PCR and cloned into the HindIII and EcoRI sites of pFLAG-CTC (Sigma). SEQ. I.D. No. 1 corresponds to residues 12-465 of glucokinase.
The expression of recombinant glucokinase protein may be carried out by transformation and growth of DH10b-T1r E. coli cells incorporating the (pFLAG-CTC) plasmid in LB media. Protein expression can be induced in this system by the addition of IPTG to the culture medium.
Recombinant protein may be isolated from cellular extracts by passage over Sepharose Q Fast Flow resin (Pharmacia). This partially purified GK extract may then be further purified by a second passage over Poros HQ10 (Applied Biosystems). The purity of GK may be determined on denaturing SDS-PAGE gel. Purified GK may then be concentrated to a final concentration of 20.0 mg/ml. After flash freezing in liquid nitrogen, the proteins can be stored at −78° C. in a buffer containing 25 mM TRIS-HCl pH 7.6, 50 mM NaCl, and 0.5 mM TCEP.
The activation properties of compounds for GK may be determined using a black 384-well-plate format under the following reaction conditions: 25 mM Hepes pH 7.2, 25 mM NaCl, 10 mM MgCl2, 0.01% Brij35, 1 mM DTT, 5 μM ATP, 5 mM Glucose 2% DMSO. The amount of ATP consumed may be determined quantitatively by addition of equal volume of luciferase reagent (luciferase+beetle luciferin—KinaseGlo Luminescent Kinase Assay kit from Promega). The luminescence intensity may be measured by using the Analyst HT from LJL Biosystems.
The assay reaction may be initiated as follows: 4 μl of substrate mixture (12.5 μM ATP and 12.5 mM Glucose) was added to each well of the plate, followed by the addition of 2 μl of activator (2 fold serial dilutions for 11 data points for each activator) containing 10% DMSO. 4 μL of 1.25 nM GK solution may be added to initiate the reaction. The reaction mixture may then be incubated at room temperature for 60 min, and quenched and developed by addition of 10 μL of luciferase reagent. Luminescence intensities of the resulting reaction mixtures may be measured after a 10 min incubation at room temperature. The luminescence intensity may be measured by using the Analyst HT from LJL Biosystems.
pKact and % ACTmax values may be calculated by non-linear curve fitting of the compound concentrations and luminescence intensities to a standard inhibition/activation equation.
Background: Kinase-Glo reads ATP consumption through a luciferase reaction.
Turning to `COC(=O)c1ccc(NC(=O)[C@H](CC2CCCCC2)n2cnc3ccc(F)cc3c2=O)nc1` [Compound 203, (S)-methyl 6-(3-cyclohexyl-2-(6-fluoro-4-oxoquinazolin-3(4H)-yl)propanamido)nicotinate], the EC50 was in the range of 1000 to 1580 nM. For `NC(=O)c1ccc(NC(=O)C(CC2CCCCC2)n2cnc3cc(S(=O)(=O)C4CCCC4)ccc3c2=O)nc1` (stereo not drawn) [Compound 80, 6-[3-Cyclohexyl-2-(7-cyclopentanesulfonyl-4-oxo-4H-quinazolin-3-yl)-propionylamino]-nicotinamide] the value was not above 398 nM; for `COC(=O)c1ccc(NC(=O)C(CC2CCCCC2)n2cnc3c(C(F)(F)F)cccc3c2=O)nc1` (stereo not drawn) [Compound 209, methyl 6-(3-cyclohexyl-2-(4-oxo-8-(trifluoromethyl)quinazolin-3(4H)-yl)propanamido)nicotinate], 1000 to 1580 nM; for `CS(=O)(=O)c1csc2c(=O)n(C(CC3CCCCC3)C(=O)Nc3ccc(C(N)=O)cn3)cnc12` (stereo not drawn) [Compound 182, 6-(3-cyclohexyl-2-(7-(methylsulfonyl)-4-oxothieno[3,2-d]pyrimidin-3(4H)-yl)propanamido)nicotinamide], 1000 to 1580 nM. For `CS(=O)(=O)c1ccc2c(=O)n(C(CC3CCCCC3)C(=O)Nc3ccc(C(N)=O)cn3)cnc2c1` (stereo not drawn) [Compound 158, 6-(3-cyclohexyl-2-(7-(methylsulfonyl)-4-oxoquinazolin-3(4H)-yl)propanamido)nicotinamide] the value was 501 to 794 nM; for `O=C(NC1CC1)c1ccc2c(=O)n(C(CC3CCCCC3)C(=O)Nc3ccc(F)cn3)c(=O)[nH]c2c1` (stereo not drawn) [Compound 119, 3-(3-cyclohexyl-1-(5-fluoropyridin-2-ylamino)-1-oxopropan-2-yl)-N-cyclopropyl-2,4-dioxo-1,2,3,4-tetrahydroquinazoline-7-carboxamide], not below 2000 nM; for `COC(=O)c1ccc(NC(=O)C(CC2CCCCC2)n2cnc3cc(F)ccc3c2=O)nc1` (stereo not drawn) [Compound 205, methyl 6-(3-cyclohexyl-2-(7-fluoro-4-oxoquinazolin-3(4H)-yl)propanamido)nicotinate], 1000 to 1580 nM.

For `O=C(NC1CCCC1)c1ccc2c(=O)n(C(CC3CCCCC3)C(=O)Nc3ncc(Cl)s3)cnc2c1` (stereo not drawn) [Compound 173, 3-(1-(5-chlorothiazol-2-ylamino)-3-cyclohexyl-1-oxopropan-2-yl)-N-cyclopentyl-4-oxo-3,4-dihydroquinazoline-7-carboxamide], the EC50 fell in the range of 501 to 794 nM. For `CCS(=O)(=O)c1ccc2c(=O)n(C(CC3CCCCC3)C(=O)Nc3ccc(F)cn3)cnc2c1` (stereo not drawn) [Compound 71, 3-Cyclohexyl-2-(7-ethanesulfonyl-4-oxo-4H-quinazolin-3-yl)-N-(5-fluoro-pyridin-2-yl)-propionamide] the value was 1000 to 1580 nM; for `NC(=O)c1ccc(NC(=O)C(CC2CCCCC2)n2cnc3cc(C(=O)NC4CC4)ccc3c2=O)nc1` (stereo not drawn) [Compound 169, 3-(1-(5-carbamoylpyridin-2-ylamino)-3-cyclohexyl-1-oxopropan-2-yl)-N-cyclopropyl-4-oxo-3,4-dihydroquinazoline-7-carboxamide], not above 398 nM; for `O=C(Nc1ccc(Cl)cn1)C(CC1CCCCC1)n1cnc2ccc(F)cc2c1=O` (stereo not drawn) [Compound 160, N-(5-chloropyridin-2-yl)-3-cyclohexyl-2-(6-fluoro-4-oxoquinazolin-3(4H)-yl)propanamide], 1000 to 1580 nM. As to `COC(=O)c1ccc(NC(=O)C(CC2CCCCC2)n2cnc3c(C)cc(Cl)cc3c2=O)nc1` (stereo not drawn) [Compound 207, methyl 6-(2-(6-chloro-8-methyl-4-oxoquinazolin-3(4H)-yl)-3-cyclohexylpropanamido)nicotinate], the EC50 lay in the range of 1000 to 1580 nM. As for `CN1CCC(CNC(=O)c2ccc3c(=O)n(C(CC4CCCCC4)C(=O)Nc4ncc(Cl)s4)c(=O)[nH]c3c2)CC1` (stereo not drawn) [Compound 179, 3-(1-(5-chlorothiazol-2-ylamino)-3-cyclohexyl-1-oxopropan-2-yl)-N-((1-methylpiperidin-4-yl)methyl)-2,4-dioxo-1,2,3,4-tetrahydroquinazoline-7-carboxamide], the EC50 is 501 to 794 nM. The result for `CS(=O)(=O)c1ccc2c(=O)n(C(CC3CCCCC3)C(=O)Nc3ccc(C(=O)O)cn3)cnc2c1` (stereo not drawn) [Compound 65, 6-[3-Cyclohexyl-2-(7-methanesulfonyl-4-oxo-4H-quinazolin-3-yl)-propionylamino]-nicotinic acid] reads not below 2000 nM; that for `CS(=O)(=O)c1ccc2c(=O)n(C(CC3CCCCC3)C(=O)Nc3ncc(Cl)s3)cnc2c1` (stereo not drawn) [Compound 56, N-(5-Chloro-thiazol-2-yl)-3-cyclohexyl-2-(7-methanesulfonyl-4-oxo-4H-quinazolin-3-yl)-propionamide], 1000 to 1580 nM; that for `O=C(NC1CC1)c1ccc2c(=O)n(C(CC3CCCCC3)C(=O)Nc3ccc(F)cn3)cnc2c1` (stereo not drawn) [Compound 118, 3-(3-Cyclohexyl-1-(5-fluoropyridin-2-ylamino)-1-oxopropan-2-yl)-N-cyclopropyl-4-oxo-3,4-dihydroquinazoline-7-carboxamide], 501 to 794 nM. For `O=C(NC1CC1)c1ccc2c(=O)n(C(CC3CCOCC3)C(=O)Nc3ncc(Cl)s3)c(=O)[nH]c2c1` (stereo not drawn) [Compound 181, 3-(1-(5-chlorothiazol-2-ylamino)-1-oxo-3-(tetrahydro-2H-pyran-4-yl)propan-2-yl)-N-cyclopropyl-2,4-dioxo-1,2,3,4-tetrahydroquinazoline-7-carboxamide] the value was not below 2000 nM; for `CS(=O)(=O)c1ccc2c(=O)n(C(Cc3c(F)cccc3F)C(=O)Nc3ccc(Cl)cn3)cnc2c1` (stereo not drawn) [Compound 77, N-(5-Chloro-pyridin-2-yl)-3-(2,6-difluoro-phenyl)-2-(7-methanesulfonyl-4-oxo-4H-quinazolin-3-yl)-propionamide], 1000 to 1580 nM. The result for `O=C(Nc1nc2ccccc2s1)C(CC1CCCCC1)n1cnc2ccc(F)cc2c1=O` (stereo not drawn) [Compound 35, N-(benzo[d]thiazol-2-yl)-3-cyclohexyl-2-(6-fluoro-4-oxoquinazolin-3(4H)-yl)propanamide] reads 501 to 794 nM.

Regarding `CS(=O)(=O)c1ccc2c(=O)n(C(CC3CCCCC3)C(=O)Nc3ccc(C#N)cn3)cnc2c1` (stereo not drawn) [Compound 166, N-(5-cyanopyridin-2-yl)-3-cyclohexyl-2-(7-(methylsulfonyl)-4-oxoquinazolin-3(4H)-yl)propanamide], the EC50 is not below 2000 nM.

On to `CN(C)CCNC(=O)c1ccc2c(=O)n(C(CC3CCCCC3)C(=O)Nc3ncc(Cl)s3)cnc2c1` (stereo not drawn) [Compound 176, 3-(1-(5-chlorothiazol-2-ylamino)-3-cyclohexyl-1-oxopropan-2-yl)-N-(2-(dimethylamino)ethyl)-4-oxo-3,4-dihydroquinazoline-7-carboxamide], for which the EC50 lay within 1000 to 1580 nM.

`CN1CCC(CNC(=O)c2ccc3c(=O)n(C(CC4CCCCC4)C(=O)Nc4ncc(Cl)s4)cnc3c2)CC1` (stereo not drawn) [Compound 178, 3-(1-(5-chlorothiazol-2-ylamino)-3-cyclohexyl-1-oxopropan-2-yl)-N-((1-methylpiperidin-4-yl)methyl)-4-oxo-3,4-dihydroquinazoline-7-carboxamide]: the EC50 lay in the range of 1000 to 1580 nM.

Consider `COc1ccc2ncn(C(CC3CCCCC3)C(=O)Nc3nccs3)c(=O)c2c1` (stereo not drawn) [Compound 131, 3-cyclohexyl-2-(6-methoxy-4-oxoquinazolin-3(4H)-yl)-N-(thiazol-2-yl)propanamide], for which the EC50 was not below 2000 nM. The result for `O=C(Nc1ncc(Cl)s1)C(CC1CCCCC1)n1c(=O)[nH]c2ccc(F)cc2c1=O` (stereo not drawn) [Compound 38, N-(5-chlorothiazol-2-yl)-3-cyclohexyl-2-(6-fluoro-2,4-dioxo-1,2-dihydroquinazolin-3(4H)-yl)propanamide] reads not below 2000 nM.
